From ChEMBL document CHEMBL1201862, “PubChem BioAssay data set” (2004)
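Step 1: Grow cells in 96-well plates. Step 2: Expose to compound for 48 hours at 5 concentrations. Step 3: Interpolate endpoints linearly; if unreached, use highest concentration. Here, GI50 denotes the concentration required for 50% inhibition of growth.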 Active and inactive are the calls of the source. No stated cut-off is given here; in the data, active = GI50 up to about 1.1 µM and inactive = higher.

Assays:
Assay in all cases: DTP human tumour cell line panel, 48 h
[1] = tested on: OVCAR-5
[2] = tested on: ACHN
[3] = tested on: SF-268
[4] = tested on: U-251
[5] = tested on: RXF 393
[6] = tested on: MDA-MB-231
[7] = tested on: NCI/ADR-RES
[8] = tested on: A549
[9] = tested on: DU-145
[10] = tested on: SF-295
[11] = tested on: CAKI-1
[12] = tested on: EKVX
[13] = tested on: OVCAR-3
[14] = tested on: NCI-H226
[15] = tested on: MDA-N
[16] = tested on: SNB-19
[17] = tested on: SK-MEL-5
[18] = tested on: TK-10
[19] = tested on: OVCAR-4
[20] = tested on: PC-3
[21] = tested on: MDA-MB-435
[22] = tested on: SF-539
[23] = tested on: COLO 205
[24] = tested on: NCI-H23
[25] = tested on: HCT-116
[26] = tested on: HOP-92
[27] = tested on: SN12C
[28] = tested on: SNB-75
[29] = tested on: SW-620
[30] = tested on: KM12
[31] = tested on: M14
[32] = tested on: IGROV-1
[33] = tested on: HCT-15
[34] = tested on: OVCAR-8
[35] = tested on: HT-29
[36] = tested on: SK-MEL-28
[37] = tested on: UACC-62
[38] = tested on: UACC-257
[39] = tested on: CCRF-CEM
[40] = tested on: MCF7
[41] = tested on: RPMI-8226
[42] = tested on: UO-31
[43] = tested on: SK-MEL-2
[44] = tested on: 786-0
[45] = tested on: NCI-H522
[46] = tested on: Hs-578T
[47] = tested on: SR
[48] = tested on: HL-60
[49] = tested on: LOX IMVI
[50] = tested on: A498
[51] = tested on: MOLT-4
[52] = tested on: NCI-H460

COC(=O)C1ON2C(C1C(=O)OC)C(C)(C)N(O)C2(C)C (stereo not drawn)
GI50 [1]: > 10 µM (inactive)
GI50 [2]: > 10 µM (inactive)
GI50 [3]: > 10 µM (inactive)
GI50 [4]: > 10 µM (inactive)
GI50 [5]: > 10 µM (inactive)
GI50 [6]: > 10 µM (inactive)
GI50 [7]: > 10 µM (inactive)
GI50 [8]: > 10 µM (inactive)
GI50 [9]: > 10 µM (inactive)
GI50 [10]: > 10 µM (inactive)
GI50 [11]: > 10 µM (inactive)
GI50 [12]: > 10 µM (inactive)
GI50 [13]: > 10 µM (inactive)
GI50 [14]: > 10 µM (inactive)
GI50 [15]: > 10 µM (inactive)
GI50 [16]: > 10 µM (inactive)
GI50 [17]: > 10 µM (inactive)
GI50 [18]: > 10 µM (inactive)
GI50 [19]: > 10 µM (inactive)
GI50 [20]: > 10 µM (inactive)
GI50 [21]: > 10 µM (inactive)
GI50 [22]: > 10 µM (inactive)
GI50 [23]: > 10 µM (inactive)
GI50 [24]: > 10 µM (inactive)
GI50 [25]: > 10 µM (inactive)
GI50 [26]: > 10 µM (inactive)
GI50 [27]: > 10 µM (inactive)
GI50 [28]: > 10 µM (inactive)
GI50 [29]: > 10 µM (inactive)
GI50 [30]: > 10 µM (inactive)
GI50 [31]: > 10 µM (inactive)
GI50 [32]: > 10 µM (inactive)
GI50 [33]: > 10 µM
GI50 [34]: > 10 µM (inactive)
GI50 [35]: > 10 µM (inactive)
GI50 [36]: > 10 µM (inactive)

Clc1cc(-c2csc(Cl)c2)cs1
GI50 [1]: > 100 µM (inactive)
GI50 [2]: > 100 µM (inactive)
GI50 [37]: > 100 µM (inactive)
GI50 [3]: > 100 µM (inactive)
GI50 [4]: > 100 µM (inactive)
GI50 [38]: > 100 µM (inactive)
GI50 [5]: > 100 µM (inactive)
GI50 [6]: > 100 µM (inactive)
GI50 [7]: > 100 µM (inactive)
GI50 [39]: > 100 µM (inactive)
GI50 [8]: > 100 µM (inactive)
GI50 [9]: > 100 µM (inactive)
GI50 [40]: > 100 µM (inactive)
GI50 [41]: > 100 µM (inactive)
GI50 [10]: > 100 µM (inactive)
GI50 [11]: > 100 µM (inactive)
GI50 [12]: > 100 µM (inactive)
GI50 [13]: > 100 µM (inactive)
GI50 [14]: > 100 µM (inactive)
GI50 [42]: > 100 µM (inactive)
GI50 [15]: > 100 µM (inactive)
GI50 [43]: > 100 µM (inactive)
GI50 [44]: > 100 µM (inactive)
GI50 [16]: > 100 µM (inactive)
GI50 [17]: > 100 µM (inactive)
GI50 [45]: > 100 µM (inactive)
GI50 [46]: > 100 µM (inactive)
GI50 [18]: > 100 µM (inactive)
GI50 [47]: > 100 µM (inactive)
GI50 [19]: > 100 µM (inactive)
GI50 [20]: > 100 µM (inactive)
GI50 [21]: > 100 µM (inactive)
GI50 [48]: > 100 µM (inactive)
GI50 [22]: > 100 µM (inactive)
GI50 [49]: > 100 µM (inactive)
GI50 [23]: > 100 µM (inactive)
GI50 [24]: > 100 µM (inactive)
GI50 [50]: > 100 µM (inactive)
GI50 [51]: > 100 µM (inactive)
GI50 [25]: > 100 µM (inactive)
GI50 [26]: > 100 µM (inactive)
GI50 [27]: > 100 µM (inactive)
GI50 [28]: > 100 µM (inactive)
GI50 [29]: > 100 µM (inactive)
GI50 [52]: > 100 µM (inactive)
GI50 [30]: > 100 µM (inactive)
GI50 [31]: > 100 µM (inactive)
GI50 [32]: > 100 µM (inactive)
GI50 [33]: > 100 µM
GI50 [34]: > 100 µM (inactive)
GI50 [35]: > 100 µM (inactive)
GI50 [36]: > 100 µM (inactive)
